In brackets after ≈: the same amount, converted by molar mass.
Assays:
[1] = test system: P-388 (mouse DBA/2 lymphoid neoplasm); assay: General anti-tumour assay, P-388; format: cell-based
Method: (§1) With compounds AH-3, AH-4 and AH-5, four general anti-tumour assays and two cytotoxicity assays were performed. Current screening protocols were employed using test substance diluted as above and at varying concentrations. Tests were performed against the tumour cells P-388 (mouse DBA/2 lymphoid neoplasm), A-549 (human lung carcinoma), HT-29 (human colon carcinoma) and MCF-7 (human breast carcinoma) and for the cytotoxicity assays against CV-1 (monkey kidney fibroblast) and BHK (Hamster kidney fibroblast).
(§2) Scoring is performed as follows: (-) no activity - the number of cells is equal to the control of growth, 0-40% cell inhibition (+) low activity - numbers of cells are reduced by approx 50-60% (++) good activity - numbers of cells are reduced by approx 70-90% (+++) very good activity - there is 100% cell inhibition [(+) is the approximate IC₅₀]

[2] = test system: A-549 (human lung carcinoma); assay: General anti-tumour assay, A-549; format: cell-based
Method: as §1, §2

[3] = test system: HT-29 (human colon carcinoma); assay: General anti-tumour assay, HT-29; format: cell-based
Method: as §1, §2

[4] = test system: MCF-7 (human breast carcinoma); assay: General anti-tumour assay, MCF-7; format: cell-based
Method: as §1, §2

[5] = test system: CV-1 (monkey kidney fibroblast); assay: Cytotoxicity assay, CV-1; format: cell-based
Method: as §1, §2

[6] = test system: BHK (Hamster kidney fibroblast); assay: Cytotoxicity assay, BHK; format: cell-based
Method: as §1, §2

[7] = test system: HSV-1 (herpes simplex virus, type 1); assay: General anti-viral assay, HSV-1 in CV-1 cells (plaque reduction); format: cell-based; details: Human alphaherpesvirus 1; CV-1/ HSV-1; read-out: IC50 µg/ml approx
[8] = test system: VSV (Vesicular Stomatitis Virus); assay: microbe, parasite or virus in culture; format: cell-based; details: BHK, read-out: IC50 µg/ml approx

SMILES: CC(C)=CC1CC(C)C2CCC(C)c3c4c(c(C)c1c32)OCO4 (stereo not drawn) [AH-5, Helioporin E]
- IC50 ([1]; Mus musculus, P388, P-388, read-out: IC50 µg/ml approx): 5 to 10 µg/mL (≈ 16 to 32 µM)
- activity (cell inhibition) ([1]; P-388, TEST CONC (µg) 0.2): - ((-) no activity - the number of cells is equal to the control of growth, 0-40% cell inhibition)
- activity (cell inhibition) ([1]; P-388, TEST CONC (µg) 0.5): - ((-) no activity - the number of cells is equal to the control of growth, 0-40% cell inhibition)
- activity (cell inhibition) ([1]; P-388, TEST CONC (µg) 1): - ((-) no activity - the number of cells is equal to the control of growth, 0-40% cell inhibition)
- activity (cell inhibition) ([1]; P-388, TEST CONC (µg) 2): - ((-) no activity - the number of cells is equal to the control of growth, 0-40% cell inhibition)
- activity (cell inhibition) ([1]; P-388, TEST CONC (µg) 5): - ((-) no activity - the number of cells is equal to the control of growth, 0-40% cell inhibition)
- activity (cell inhibition) ([1]; P-388, TEST CONC (µg) 10): ++ ((++) good activity - numbers of cells are reduced by approx 70-90%)
- activity (cell inhibition) ([1]; P-388, TEST CONC (µg) 20): ++ ((++) good activity - numbers of cells are reduced by approx 70-90%)
- activity (cell inhibition) ([2]; A-549, TEST CONC (µg) 0.2): - ((-) no activity - the number of cells is equal to the control of growth, 0-40% cell inhibition)
- activity (cell inhibition) ([2]; A-549, TEST CONC (µg) 0.5): - ((-) no activity - the number of cells is equal to the control of growth, 0-40% cell inhibition)
- activity (cell inhibition) ([2]; A-549, TEST CONC (µg) 1): - ((-) no activity - the number of cells is equal to the control of growth, 0-40% cell inhibition)
- activity (cell inhibition) ([2]; A-549, TEST CONC (µg) 2): - ((-) no activity - the number of cells is equal to the control of growth, 0-40% cell inhibition)
- activity (cell inhibition) ([2]; A-549, TEST CONC (µg) 5): - ((-) no activity - the number of cells is equal to the control of growth, 0-40% cell inhibition)
- activity (cell inhibition) ([2]; A-549, TEST CONC (µg) 10): - ((-) no activity - the number of cells is equal to the control of growth, 0-40% cell inhibition)
- activity (cell inhibition) ([2]; A-549, TEST CONC (µg) 20): - ((-) no activity - the number of cells is equal to the control of growth, 0-40% cell inhibition)
- IC50 ([2]; Homo sapiens, A549, A-549, read-out: IC50 µg/ml approx): > 20 µg/mL
- activity (cell inhibition) ([3]; HT-29, TEST CONC (µg) 0.2): - ((-) no activity - the number of cells is equal to the control of growth, 0-40% cell inhibition)
- activity (cell inhibition) ([3]; HT-29, TEST CONC (µg) 0.5): - ((-) no activity - the number of cells is equal to the control of growth, 0-40% cell inhibition)
- activity (cell inhibition) ([3]; HT-29, TEST CONC (µg) 1): - ((-) no activity - the number of cells is equal to the control of growth, 0-40% cell inhibition)
- activity (cell inhibition) ([3]; HT-29, TEST CONC (µg) 2): - ((-) no activity - the number of cells is equal to the control of growth, 0-40% cell inhibition)
- activity (cell inhibition) ([3]; HT-29, TEST CONC (µg) 5): + ((+) low activity - numbers of cells are reduced by approx 50-60%)
- activity (cell inhibition) ([3]; HT-29, TEST CONC (µg) 10): ++ ((++) good activity - numbers of cells are reduced by approx 70-90%)
- activity (cell inhibition) ([3]; HT-29, TEST CONC (µg) 20): +++ ((+++) very good activity - there is 100% cell inhibition)
- IC50 ([3]; Homo sapiens, HT-29, read-out: IC50 µg/ml approx): ~5 µg/mL (≈ 16 µM)
- IC50 ([4]; Homo sapiens, MCF7, MCF-7, read-out: IC50 µg/ml approx): ~10 µg/mL (≈ 32 µM)
- activity (cell inhibition) ([4]; MCF-7, TEST CONC (µg) 0.2): - ((-) no activity - the number of cells is equal to the control of growth, 0-40% cell inhibition)
- activity (cell inhibition) ([4]; MCF-7, TEST CONC (µg) 0.5): - ((-) no activity - the number of cells is equal to the control of growth, 0-40% cell inhibition)
- activity (cell inhibition) ([4]; MCF-7, TEST CONC (µg) 1): - ((-) no activity - the number of cells is equal to the control of growth, 0-40% cell inhibition)
- activity (cell inhibition) ([4]; MCF-7, TEST CONC (µg) 2): - ((-) no activity - the number of cells is equal to the control of growth, 0-40% cell inhibition)
- activity (cell inhibition) ([4]; MCF-7, TEST CONC (µg) 5): - ((-) no activity - the number of cells is equal to the control of growth, 0-40% cell inhibition)
- activity (cell inhibition) ([4]; MCF-7, TEST CONC (µg) 10): + ((+) low activity - numbers of cells are reduced by approx 50-60%)
- activity (cell inhibition) ([4]; MCF-7, TEST CONC (µg) 20): +++ ((+++) very good activity - there is 100% cell inhibition)
- activity (cell inhibition) ([5]; CV-1, TEST CONC (µg) 0.2): - ((-) no activity - the number of cells is equal to the control of growth, 0-40% cell inhibition)
- activity (cell inhibition) ([5]; CV-1, TEST CONC (µg) 0.5): - ((-) no activity - the number of cells is equal to the control of growth, 0-40% cell inhibition)
- activity (cell inhibition) ([5]; CV-1, TEST CONC (µg) 1): - ((-) no activity - the number of cells is equal to the control of growth, 0-40% cell inhibition)
- activity (cell inhibition) ([5]; CV-1, TEST CONC (µg) 2): - ((-) no activity - the number of cells is equal to the control of growth, 0-40% cell inhibition)
- activity (cell inhibition) ([5]; CV-1, TEST CONC (µg) 5): - ((-) no activity - the number of cells is equal to the control of growth, 0-40% cell inhibition)
- activity (cell inhibition) ([5]; CV-1, TEST CONC (µg) 10): - ((-) no activity - the number of cells is equal to the control of growth, 0-40% cell inhibition)
- activity (cell inhibition) ([5]; CV-1, TEST CONC (µg) 20): ++ ((++) good activity - numbers of cells are reduced by approx 70-90%)
- IC50 ([5]; Primates, CV-1, read-out: IC50 µg/ml approx): 10 to 20 µg/mL (≈ 32 to 64 µM)
- IC50 ([6]; Mesocricetus auratus, read-out: IC50 µg/ml approx): ~5 µg/mL (≈ 16 µM)
- activity (cell inhibition) ([6]; TEST CONC (µg) 0.2): - ((-) no activity - the number of cells is equal to the control of growth, 0-40% cell inhibition)
- activity (cell inhibition) ([6]; TEST CONC (µg) 0.5): - ((-) no activity - the number of cells is equal to the control of growth, 0-40% cell inhibition)
- activity (cell inhibition) ([6]; TEST CONC (µg) 1): - ((-) no activity - the number of cells is equal to the control of growth, 0-40% cell inhibition)
- activity (cell inhibition) ([6]; TEST CONC (µg) 2): - ((-) no activity - the number of cells is equal to the control of growth, 0-40% cell inhibition)
- activity (cell inhibition) ([6]; TEST CONC (µg) 5): + ((+) low activity - numbers of cells are reduced by approx 50-60%)
- activity (cell inhibition) ([6]; TEST CONC (µg) 10): +++ ((+++) very good activity - there is 100% cell inhibition)
- activity (cell inhibition) ([6]; TEST CONC (µg) 20): +++ ((+++) very good activity - there is 100% cell inhibition)
- IC50 [7]: > 40 µg/mL
- IC50 [8]: > 40 µg/mL
- cytotoxicity (inhibition zone on the cell sheet) (BHK cells): 0-

Source: EP0432983A2 (priority 1989, dated 1991)
